Measured values taken from patent US6071916A, “HIV protease inhibitor” (priority 1998, dated 2000).
Structures can show the parent of a compound that is named as a salt.

Assays:
[1] = tested on: HIV protease; details: assays described in WO 95/16688; cited from earlier work
[2] = oral absorption and bioavailability in animal models; format: in vivo
[3] = hydrophobic/hydrophilic nature in formulation; format: physicochemical; details: dispersion during formulation; HCl (dihydrate) requires wetting agents

SMILES	inhibition of HIV protease [1]	oral absorption ([2]; oral, animal models)	hydrophobic or hydrophilic nature [3]	rate of absorption ([2]; compared with the existing HCl, HBr and methanesulfonate salts)	bioavailability ([2]; oral, animal models)
CC(C)(C)NC(=O)[C@@H]1CN(Cc2cc3ccccc3o2)CCN1C[C@@H](O)C[C@@H](Cc1ccccc1)C(=O)N[C@H]1c2ccccc2C[C@H]1O [Compound A, N-(2(R)-hydroxy-1(S)-indanyl)-2(R)-phenylmethyl-4-(S)-hydroxy-5-(1-(4-(2-benzo[b]furanylmethyl)-2(S)-N'-(t-butylcarboxamido)-piperazinyl))-pentaneamide]	potent inhibitor of HIV protease				
CC(C)(C)NC(=O)[C@@H]1CN(Cc2cc3ccccc3o2)CCN1C[C@@H](O)C[C@@H](Cc1ccccc1)C(=O)N[C@H]1c2ccccc2C[C@H]1O [HCl (dihydrate) salt, reference compound]		poor	extremely hydrophobic		
CC(C)(C)NC(=O)[C@@H]1CN(Cc2cc3ccccc3o2)CCN1C[C@@H](O)C[C@@H](Cc1ccccc1)C(=O)N[C@H]1c2ccccc2C[C@H]1O [sulfate salt]		much greater	hydrophilic	more rapidly absorbed than the existing HCl, HBr and methanesulfonate salts	much greater
